For 8 molecules, TGI and GI50 results are on record in PubChem BioAssay (NCI).

Holding throughout (test): NCI-60 cell line screen, 48 h
The test system of experiment [1] is SK-MEL-2 melanoma.
Experiment [2] deals with RPMI-8226 leukemia.
The test system of experiment [3] is SK-MEL-28 melanoma.
Experiment [4] deals with A498 renal.
Experiment [5] relates to OVCAR-4 ovarian.
Experiment [6] relates to LOX IMVI melanoma.
In experiment [7] the test system is 786-0 renal.
Experiment [8] relates to UACC-257 melanoma.
Experiment [9] relates to COLO 205 colon.
Experiment [10] concerns SF-295 CNS.

“And” between values parts separate entries of the source, which are not always exact repeats. Equal entries are not always repeated.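 Compound exposure: 48 hours, 5 concentrations, 96-well plates. Here, GI50 denotes the concentration required for 50% inhibition of growth. The concentration for full growth arrest is given as TGI.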

For `C=C(C)[C@H](O)C(O)CC(C)[C@@H]1CCC23CC12CCC1[C@@]2(C)CCC(OC(C)=O)C(C)(C)C2CC(OC2OC(COC(C)=O)C(O)C(O)C2O)[C@]13C` (stereo not given in full), the TGI came out at 16.2 µM in experiment [1]; 6.29 µM in experiment [2]; 13.3 µM in [3]; 14.7 µM in experiment [4]; 14 µM in experiment [5]; 10.7 µM in experiment [6]. For the same molecule, the TGI in [7] was determined as 13.7 µM; in experiment [8] it was 12 µM; in [9] it was 12.6 µM; in [10], 12.5 µM.

As to `CCOC(=O)C#Cc1c(CC(=O)OCC)nnn1[C@H]1O[C@@H](CO)[C@@H]2OC(C)(C)O[C@@H]21`, the GI50 is 18.4 µM in experiment [1]; 3.45 µM in [2]; 3.33 µM in [3]; 17.7 µM in [4]; 2.11 µM in experiment [5]; 1.35 µM in [6]. The GI50 in experiment [7] is 6.58 µM; in [8], 4.47 µM; in experiment [9], 2.05 µM; in experiment [10] it was 43.6 µM. The TGI in experiment [1] was 34.8 µM; in [2], 9.06 µM; in experiment [3], 11.4 µM; in experiment [4], 31.5 µM; in experiment [5] it was 5.43 µM; in experiment [6], 2.97 µM. The TGI was 19.6 µM in experiment [7], 12.7 µM in [8], 4.06 µM in experiment [9] and more than 100 µM in [10].

For the molecule `CNc1nc(N(C)C)nc(N(C)C)n1`, the GI50 is > 100 µM and 2150 µM in experiment [1]; > 100 µM and 1500 µM in [2]; > 100 µM and 1240 µM in experiment [3]; > 100 µM and 1300 µM in [4]; > 100 µM and 431 µM in experiment [5]; > 100 µM and 901 µM in experiment [6]. Besides, the GI50 in [7] was > 100 µM and 2790 µM; in experiment [8], > 100 µM and 1640 µM; in experiment [9], > 100 µM and 1780 µM; in experiment [10], > 100 µM and 1130 µM. In addition, the TGI in experiment [1] was > 100 µM and 4820 µM; in experiment [2], > 100 µM and 2940 µM; in [3], > 100 µM and 2700 µM; in experiment [4], > 100 µM and 2970 µM; in experiment [5], > 100 µM and 1260 µM; in experiment [6], > 100 µM and 5150 µM. For the same molecule, the TGI in [7] was > 100 µM and 4840 µM; in [8] it was > 100 µM and 3580 µM; in [9], > 100 µM and 4010 µM; in [10], > 100 µM and 2440 µM.

For the molecule `CS/C(c1ccccc1)=[N+](/C)[O-]`, the TGI was more than 100 µM in [1]; more than 87.1 µM in experiment [2]; more than 100 µM in experiment [3]; more than 100 µM in experiment [4]; more than 100 µM in experiment [5]; more than 58.2 µM in experiment [6]. Moreover, the TGI was more than 100 µM in experiment [7], more than 100 µM in experiment [8], more than 61.5 µM in experiment [9] and more than 100 µM in experiment [10].

For the molecule `O=C(N/N=C\c1ccc(N(CCCl)CCCl)cc1Cl)c1cccnc1`, the GI50 was 14.3 µM in experiment [1]; 12.2 µM in experiment [2]; 26.5 µM in [3]; 0.0664 µM in experiment [4]; 5.28 µM in [5]; 16.1 µM in experiment [6]. Besides, the GI50 was 15.1 µM in experiment [7], 1.08 µM in experiment [8], 8.5 µM in experiment [9] and 0.565 µM in experiment [10]. For the same molecule, the TGI in experiment [1] was 53.3 µM; in experiment [2], 41.4 µM; in experiment [3] it was more than 100 µM; in [4], 0.179 µM; in [5], 38.5 µM; in experiment [6], 52.6 µM. Moreover, the TGI is 56.6 µM in experiment [7], 3.48 µM in experiment [8], 38.1 µM in experiment [9] and 9.97 µM in [10].

Consider `COCCNC(=O)c1ccc(-c2nc3ccc4[nH]ncc4c3c3c2CCCC3)cc1`, for which the GI50 in [1] was 2.16 µM; in experiment [2], 1.74 µM; in experiment [3], 2.49 µM; in [4] it was 0.174 µM; in experiment [5], 4.59 µM; in experiment [6] it was 2.88 µM. Besides, the GI50 in experiment [7] is 2.12 µM; in experiment [8], 5.38 µM; in experiment [9], 2.83 µM; in experiment [10], 2.7 µM. Also, the TGI was 7.97 µM in [1]; 7.03 µM in [2]; 98.2 µM in experiment [3]; 2.93 µM in experiment [4]; 72.9 µM in experiment [5]; more than 100 µM in [6]. Besides, the TGI in [7] is 16.2 µM; in experiment [8], more than 100 µM; in [9], 15 µM; in experiment [10], 47.7 µM.

`C[CH2][Sn]([Cl])([Cl])[CH2]C`: the GI50 is 17 µM in experiment [1]; 17.1 µM in experiment [2]; 19.8 µM in experiment [3]; 23.4 µM in experiment [4]; more than 100 µM in experiment [5]; 17.5 µM in [6]. Also, the GI50 in experiment [7] was 28.9 µM; in experiment [8], 18.4 µM; in experiment [9], 19.1 µM; in [10], more than 75 µM. The TGI in experiment [1] was 37.4 µM; in experiment [2], 48.3 µM; in [3], 36.3 µM; in [4], 43.7 µM; in [5] it was more than 100 µM; in [6], 33.1 µM. For the same molecule, the TGI in experiment [7] was more than 56 µM; in experiment [8], 35 µM; in experiment [9], 34.8 µM; in experiment [10], more than 100 µM.

Consider `CCCCCN(CCCCC)CC(O)c1cc2c(c3ccccc13)CCCC2` (stereo not given), for which the GI50 in experiment [1] is 2.86 µM and 11.5 µM; in experiment [2], 2.41 µM and 1.5 µM; in [3], 12.1 µM; in [4] it was 3.34 µM and 10.8 µM; in experiment [5] it was 3.16 µM and 9.19 µM; in experiment [6], 3.71 µM and 4.93 µM. In addition, the GI50 in experiment [7] was 3.75 µM and 6.51 µM; in experiment [8] it was 4.88 µM and 13.8 µM; in [9] it was 3.4 µM and 13.7 µM; in experiment [10], 2.38 µM and 6.82 µM. For the same molecule, the TGI in experiment [1] is 8.2 µM and 29 µM; in experiment [2], 7.39 µM and 9.18 µM; in experiment [3], 25.5 µM; in [4], 14.1 µM and 23.5 µM; in experiment [5] it was 16 µM and 30.1 µM; in [6], 14.8 µM and 28.1 µM. For the same molecule, the TGI in experiment [7] was 13 µM and 19.1 µM; in [8] it was 17.5 µM and 30.2 µM; in experiment [9], 13.8 µM and 80.5 µM; in experiment [10], 11.4 µM and 29.8 µM.
